Measurements published in ChEMBL document CHEMBL1909046, “DrugMatrix in vitro pharmacology data”.

Columns and labels:
[1] = biological target: Tyrosine-protein kinase Fyn (Homo sapiens, UniProt P06241); assay: biochemical; type: cell-based, Insect cells; details: insect cells;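 further: enzymatic inhibition of Fyn kinase activity measured with Poly(Glu:Tyr) as the phosphorylation substrate; in other assays of this panel Not Active means under 50% inhibition at 10 µM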
[2] = biological target: Receptor tyrosine-protein kinase erbB-2 (Homo sapiens, UniProt P04626); assay: biochemical; type: cell-based, Insect cells; details: insect cells;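 further: inhibition of HER2 kinase enzyme activity, measured with Poly(Glu:Tyr) as the phosphorylation substrate; in other assays of this panel Not Active means under 50% inhibition at 10 µM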
Adenosine receptor A3 = biological target: T1, Adenosine receptor A3 (Homo sapiens, UniProt P0DMS8); type: cell membranes, CHO-K1, Membrane; details: cho-k1;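 further: radioligand binding assay with AB-MECA serving as the labeled ligand; in other assays of this panel Not Active means under 50% inhibition at 10 µM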
T1 sequence (P0DMS8 whole entry): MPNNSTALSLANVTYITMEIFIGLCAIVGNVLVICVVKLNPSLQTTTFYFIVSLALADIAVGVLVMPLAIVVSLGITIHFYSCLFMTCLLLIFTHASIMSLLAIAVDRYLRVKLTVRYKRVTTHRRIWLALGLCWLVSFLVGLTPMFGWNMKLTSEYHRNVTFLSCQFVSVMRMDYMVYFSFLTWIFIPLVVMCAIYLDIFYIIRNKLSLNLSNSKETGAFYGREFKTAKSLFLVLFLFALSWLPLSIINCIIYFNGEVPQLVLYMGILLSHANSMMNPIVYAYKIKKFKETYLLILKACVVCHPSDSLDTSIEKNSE

[3] = biological target: T2, C-C chemokine receptor type 4 (Homo sapiens, UniProt P51679); type: cell membranes, Membrane; details: chem-1; further: in other assays of this panel Not Active means under 50% inhibition at 10 µM
T2 sequence (P51679 whole entry): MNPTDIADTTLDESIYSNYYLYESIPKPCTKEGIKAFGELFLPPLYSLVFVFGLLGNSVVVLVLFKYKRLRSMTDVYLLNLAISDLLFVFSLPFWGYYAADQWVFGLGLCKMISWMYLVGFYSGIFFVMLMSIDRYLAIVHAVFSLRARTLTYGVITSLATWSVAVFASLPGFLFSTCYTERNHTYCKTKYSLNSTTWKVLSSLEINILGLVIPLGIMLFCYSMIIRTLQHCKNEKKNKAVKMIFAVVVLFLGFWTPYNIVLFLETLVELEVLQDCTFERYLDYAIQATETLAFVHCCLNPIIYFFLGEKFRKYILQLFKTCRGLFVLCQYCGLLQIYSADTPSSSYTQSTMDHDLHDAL

Vasopressin V1a receptor = Vasopressin V1a receptor (Homo sapiens, UniProt P37288); type: cell membranes, Membrane; details: hek293; further: in other assays of this panel Not Active means under 50% inhibition at 10 µM
[4] = DRUGMATRIX: Phosphodiesterase PDE3 enzyme inhibition (substrate: [3H]cAMP + cAMP); type: tissue-based, Homo sapiens; details: platelet; Not Active = under 50% inhibition at 10 µM

Tyrosine-protein kinase Fyn, sequence (P06241 whole entry): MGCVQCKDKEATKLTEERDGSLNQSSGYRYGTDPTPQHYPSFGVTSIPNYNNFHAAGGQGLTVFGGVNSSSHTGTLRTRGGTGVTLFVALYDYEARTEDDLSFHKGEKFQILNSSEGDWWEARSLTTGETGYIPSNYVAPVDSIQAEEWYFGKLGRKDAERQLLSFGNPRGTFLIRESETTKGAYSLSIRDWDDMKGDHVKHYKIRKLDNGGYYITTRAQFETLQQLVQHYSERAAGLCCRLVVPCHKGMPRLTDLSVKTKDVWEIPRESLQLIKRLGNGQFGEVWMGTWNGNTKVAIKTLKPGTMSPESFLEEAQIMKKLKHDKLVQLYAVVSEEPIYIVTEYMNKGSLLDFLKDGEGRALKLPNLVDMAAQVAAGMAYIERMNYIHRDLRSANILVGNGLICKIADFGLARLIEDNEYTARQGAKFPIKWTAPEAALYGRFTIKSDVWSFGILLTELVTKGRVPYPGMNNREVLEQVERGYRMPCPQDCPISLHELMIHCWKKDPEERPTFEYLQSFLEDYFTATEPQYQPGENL
Vasopressin V1a receptor, sequence (P37288 whole entry): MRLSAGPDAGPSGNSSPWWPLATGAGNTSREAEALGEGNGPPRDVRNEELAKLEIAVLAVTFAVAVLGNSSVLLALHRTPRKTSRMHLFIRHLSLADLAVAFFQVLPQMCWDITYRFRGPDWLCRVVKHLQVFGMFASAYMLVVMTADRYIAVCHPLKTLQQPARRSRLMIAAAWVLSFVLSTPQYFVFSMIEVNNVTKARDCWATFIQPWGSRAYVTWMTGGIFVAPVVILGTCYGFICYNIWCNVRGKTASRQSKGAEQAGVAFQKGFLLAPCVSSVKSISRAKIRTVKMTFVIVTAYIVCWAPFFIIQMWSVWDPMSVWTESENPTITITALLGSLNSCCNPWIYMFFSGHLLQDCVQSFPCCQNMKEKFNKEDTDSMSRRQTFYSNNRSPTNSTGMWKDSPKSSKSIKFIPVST

NC(=O)c1cccnc1 [NIACINAMIDE]
Not Active: IC50 [1] | IC50 [2] | IC50 (Adenosine receptor A3) | IC50 [3] | IC50 (Vasopressin V1a receptor) | IC50 [4] | Ki [4]

CS(=O)(=O)Nc1ccc([N+](=O)[O-])cc1Oc1ccccc1 [NIMESULIDE]
Not Active: IC50 [1] | IC50 [2] | IC50 (Adenosine receptor A3) | IC50 [3] | IC50 (Vasopressin V1a receptor) | IC50 [4] | Ki [4]

CN1C(=O)CN=C(c2ccccc2)c2cc([N+](=O)[O-])ccc21 [NIMETAZEPAM]
Not Active: IC50 [1] | IC50 [2] | IC50 (Adenosine receptor A3) | IC50 [3] | IC50 (Vasopressin V1a receptor) | IC50 [4] | Ki [4]

COc1ccc2c(c1OC)C(=O)O[C@@H]2[C@H]1c2c(cc3c(c2OC)OCO3)CCN1C [NOSCAPINE]
Not Active: IC50 [1] | IC50 [2] | IC50 (Adenosine receptor A3) | IC50 [3] | IC50 (Vasopressin V1a receptor) | IC50 [4] | Ki [4]

C[C@@H]1O[C@@H](O[C@H]2C[C@@H](O)[C@]3(CO)[C@H]4[C@H](O)C[C@]5(C)[C@@H](C6=CC(=O)OC6)CC[C@]5(O)[C@@H]4CC[C@]3(O)C2)[C@H](O)[C@H](O)[C@H]1O [OUABAIN]
Not Active: IC50 [1] | IC50 [2] | IC50 (Adenosine receptor A3) | IC50 [3] | IC50 (Vasopressin V1a receptor) | IC50 [4] | Ki [4]

NC(=O)N1c2ccccc2CC(=O)c2ccccc21 [OXCARBAZEPINE]
Not Active: IC50 [1] | IC50 [2] | IC50 (Adenosine receptor A3) | IC50 [3] | IC50 (Vasopressin V1a receptor) | IC50 [4] | Ki [4]

COc1ccnc(C[S+]([O-])c2nc3ccc(OC(F)F)cc3[nH]2)c1OC (centres undefined) [PANTOPRAZOLE]
Not Active: IC50 [1] | IC50 [2] | IC50 (Adenosine receptor A3) | IC50 [3] | IC50 (Vasopressin V1a receptor) | IC50 [4] | Ki [4]

N=C(N)c1ccc(OCCCCCOc2ccc(C(=N)N)cc2)cc1 [PENTAMIDINE]
Not Active: IC50 [1] | IC50 [2] | IC50 (Adenosine receptor A3) | IC50 [3] | IC50 (Vasopressin V1a receptor) | IC50 [4] | Ki [4]

NNCCc1ccccc1 [PHENELZINE]
Not Active: IC50 [1] | IC50 [2] | IC50 (Adenosine receptor A3) | IC50 [3] | IC50 (Vasopressin V1a receptor) | IC50 [4] | Ki [4]

CCc1ccc(CCOc2ccc(CC3SC(=O)NC3=O)cc2)nc1 (centres undefined) [PIOGLITAZONE]
Not Active: IC50 [1] | IC50 [2] | IC50 (Adenosine receptor A3) | IC50 [3] | IC50 (Vasopressin V1a receptor) | IC50 [4] | Ki [4]

CCCNC(C)C(=O)Nc1ccccc1C (centres undefined) [PRILOCAINE]
Not Active: IC50 [1] | IC50 [2] | IC50 (Adenosine receptor A3) | IC50 [3] | IC50 (Vasopressin V1a receptor) | IC50 [4] | Ki [4]

CCN(CC)CCNC(=O)c1ccc(N)cc1 [PROCAINAMIDE]
Not Active: IC50 [1] | IC50 [2] | IC50 (Adenosine receptor A3) | IC50 [3] | IC50 (Vasopressin V1a receptor) | IC50 [4] | Ki [4]

CCN(CC)CCCC(C)Nc1c2ccc(Cl)cc2nc2ccc(OC)cc12 (centres undefined) [QUINACRINE]
Not Active: IC50 [1] | IC50 [2] | IC50 (Adenosine receptor A3) | IC50 [3] | IC50 (Vasopressin V1a receptor) | IC50 [4] | Ki [4]

C[C@]12C=CC(=O)C=C1CC[C@H]1[C@@H]3C[C@@H](O)[C@](O)(C(=O)CO)[C@@]3(C)C[C@H](O)[C@@]12F [TRIAMCINOLONE]
Not Active: IC50 [1] | IC50 [2] | IC50 (Adenosine receptor A3) | IC50 [3] | IC50 (Vasopressin V1a receptor) | IC50 [4] | Ki [4]

CC[C@]1(O)C[C@@H]2CN(CCc3c([nH]c4ccccc34)[C@@](C(=O)OC)(c3cc4c(cc3OC)N(C)[C@H]3[C@@](O)(C(N)=O)[C@H](O)[C@]5(CC)C=CCN6CC[C@]43[C@@H]65)C2)C1 [VINDESINE]
Not Active: IC50 [1] | IC50 [2] | IC50 (Adenosine receptor A3) | IC50 [3] | IC50 (Vasopressin V1a receptor) | IC50 [4] | Ki [4]

CCN(C(C)=O)c1cccc(-c2ccnc3c(C#N)cnn23)c1 [ZALEPLON]
Not Active: IC50 [1] | IC50 [2] | IC50 (Adenosine receptor A3) | IC50 [3] | IC50 (Vasopressin V1a receptor) | IC50 [4] | Ki [4]

COBALTOUS CHLORIDE
Not Active: IC50 [1] | Ki [1] | IC50 [2] | Ki [2] | IC50 (Adenosine receptor A3) | Ki (Adenosine receptor A3) | IC50 [3] | Ki [3] | IC50 (Vasopressin V1a receptor) | Ki (Vasopressin V1a receptor) | IC50 [4] | Ki [4]
